From article PMC2408963, “A Detailed Analysis of the Murine TAP Transporter Substrate Specificity” (PLoS ONE, 2008)
Where no end group is shown, it is not given here.

Key:
[1] = system: human TAP complexes; assay: Fluorescence polarization assay with insect cell-expressed human TAP; assay type: binding
[2] = system: murine TAP1 or TAP2 protein alone
Excerpt: Using the same insect cell system for TAP expression, a novel assay was established which is based on detecting fluorescence polarization rather than the activity of a radioactive tracer. […] To establish a fluorescence polarization assay, we determined the concentrations of reporter peptide and microsomes yielding the highest specific binding signal (mP reading).

## R9L-FITC: reporter peptide in which position 6 (Ser) of R9L was substituted by a Cys residue coupled to a fluorescein group (RRYNAC(fluorescein)TEL)
[1]
  affinity for human TAP compared with murine TAP: identical affinity
[2]
  binding to microsomes containing either murine TAP1 or TAP2 protein alone: did not bind
